Experimental data published in patent publication US8431593B2, “Heteroaryl amide derivatives” (H. Lundbeck A/S, priority 2006, dated 2013).

biological target: T1, P2X7 receptor (Homo sapiens, UniProt Q99572); experiment: P2X7 calcium mobilization assay, high throughput, antagonist activity (Example 4A); assay type: cell-based; details: 50% decrease in the fluorescence response of cells exposed to 80 μM of 2′(3′)-O-(4-benzoyl-benzoyl)adenosine 5′-triphosphate; Example 4A; read-out: IC50
T1 construct: host or cells: SH-SY5Y
T1 sequence (Q99572 1-595): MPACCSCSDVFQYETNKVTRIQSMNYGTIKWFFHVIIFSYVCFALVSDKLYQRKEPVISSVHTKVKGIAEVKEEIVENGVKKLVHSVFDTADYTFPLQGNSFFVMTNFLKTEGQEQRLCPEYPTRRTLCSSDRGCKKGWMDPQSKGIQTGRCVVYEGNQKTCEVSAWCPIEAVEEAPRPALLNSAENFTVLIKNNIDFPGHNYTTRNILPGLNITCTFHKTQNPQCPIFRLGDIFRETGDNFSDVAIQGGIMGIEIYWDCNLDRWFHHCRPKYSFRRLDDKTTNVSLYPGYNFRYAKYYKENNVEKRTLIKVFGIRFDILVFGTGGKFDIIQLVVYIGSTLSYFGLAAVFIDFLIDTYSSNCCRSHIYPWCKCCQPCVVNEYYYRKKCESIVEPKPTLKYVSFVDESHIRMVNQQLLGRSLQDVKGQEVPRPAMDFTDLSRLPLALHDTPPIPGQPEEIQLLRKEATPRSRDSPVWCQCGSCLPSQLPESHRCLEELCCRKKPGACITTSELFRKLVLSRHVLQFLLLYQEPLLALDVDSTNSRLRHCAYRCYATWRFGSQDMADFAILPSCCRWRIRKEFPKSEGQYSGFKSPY
How it was run: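 100,000 cells/well, plated day -1. Dye 1 h → rinse → compound 1 h, RT → FLIPR^TETRA Ca2+ mobilization. Max RFU minus mean negative control (no agonist); mean agonist-well max as positive control.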

Structure (SMILES)	IC50
CCOC(=O)C(Cc1ccccn1)c1cn2c(C(=O)NCC34CC5CC(CC(C5)C3)C4)cccc2n1 (stereo not drawn) [Compound 736, ethyl 2-{5-[(adamantan-1-ylmethyl)carbamoyl]imidazo[1,2-a]pyridin-2-yl}-3-pyridin-2-ylpropanoate]	< 2000 nM
CN(C)C1CCCN(C(=O)Cc2cn3c(C(=O)NCC45CC6CC(CC(C6)C4)C5)cccc3n2)C1 (stereo not drawn) [Compound 740, N-(adamantan-1-ylmethyl)-2-{2-[3-(dimethylamino)piperidin-1-yl]-2-oxoethyl}imidazo[1,2-a]pyridine-5-carboxamide]	< 2000 nM
CC(COS(C)(=O)=O)c1cn2c(C(=O)NCC34CC5CC(CC(C5)C3)C4)cccc2n1 (stereo not drawn) [Compound 741, 2-{5-[(adamantan-1-ylmethyl)carbamoyl]imidazo[1,2-a]pyridin-2-yl}propyl methanesulfonate]	< 2000 nM
CC(C)N[C@@H]1CCCN(C(=O)Cc2cn3c(C(=O)NCC45CC6CC(CC(C6)C4)C5)cccc3n2)C1 [Compound 742, N-(adamantan-1-ylmethyl)-2-{2-[(3R)-3-(isopropylamino)piperidin-1-yl]-2-oxoethyl}imidazo[1,2-a]pyridine-5-carboxamide]	< 2000 nM
CC(C)N[C@@H]1CCCN(C(=O)c2cn3c(C(=O)NCC45CC6CC(CC(C6)C4)C5)cccc3n2)C1 [Compound 745, N-(adamantan-1-ylmethyl)-2-{[(3R)-3-(isopropylamino)piperidin-1-yl]carbonyl}imidazo[1,2-a]pyridine-5-carboxamide]	< 2000 nM
CC(C)CC(CNC(=O)c1cccc2nc(C(=O)N3CC[C@@H](N)C3)cn12)c1cccnc1 (stereo partly drawn) [Compound 746, 2-[(3-aminopyrrolidin-1-yl)carbonyl]-N-(4-methyl-2-pyridin-3-ylpentyl) imidazo[1,2-a]pyridine-5-carboxamide]	< 2000 nM
O=C(NCC12CC3CC(CC(C3)C1)C2)c1cccc2nc(C(=O)N3CC[C@@H](NCCO)C3)cn12 [Compound 747, N-(adamantan-1-ylmethyl)-2-({3-[(2-hydroxyethyl)amino]pyrrolidin-1-yl}carbonyl)imidazo[1,2-a]pyridine-5-carboxamide]	< 2000 nM
CC(CC#N)c1cn2c(C(=O)NCC34CC5CC(CC(C5)C3)C4)cccc2n1 (stereo not drawn) [Compound 748, N-(adamantan-1-ylmethyl)-2-(2-cyano-1-methylethyl) imidazo[1,2-a]pyridine-5-carboxamide]	< 2000 nM
CC(C(=O)N1CCC[C@@H](N)C1)c1cn2c(C(=O)NCC34CC5CC(CC(C5)C3)C4)cccc2n1 (stereo partly drawn) [Compound 751, N-(adamantan-1-ylmethyl)-2-[2-(3-aminopiperidin-1-yl)-1-methyl-2-oxoethyl]imidazo [1,2-a]pyridine-5-carboxamide]	< 2000 nM
CC(C(=O)N1CC[C@@H](N)C1)c1cn2c(C(=O)NCC34CC5CC(CC(C5)C3)C4)cccc2n1 (stereo partly drawn) [Compound 752, N-(adamantan-1-ylmethyl)-2-[2-(3-aminopyrrolidin-1-yl)-1-methyl-2-oxoethyl]imidazo [1,2-a]pyridine-5-carboxamide]	< 2000 nM
CN(C)[C@@H]1CCN(C(=O)CCc2cn3c(C(=O)NCC45CC6CC(CC(C6)C4)C5)cccc3n2)C1 [Compound 753, N-(adamantan-1-ylmethyl)-2-{3-[(3R)-3-(dimethylamino)pyrrolidin-1-yl]-3-oxopropyl}imidazo [1,2-a)pyridine-5-carboxamide]	< 2000 nM
CN(C)C1CCCN(C(=O)CCc2cn3c(C(=O)NCC45CC6CC(CC(C6)C4)C5)cccc3n2)C1 (stereo not drawn) [Compound 754, N-(adamantan-1-ylmethyl)-2-{3-[3-(dimethylamino)piperidin-1-yl]-3-oxopropyl} imidazo[1,2-a] pyridine-5-carboxamide]	< 2000 nM
O=C(NCC12CC3CC(CC(C3)C1)C2)c1cccc2nc(C(Cc3ccccc3)C(=O)O)cn12 (stereo not drawn) [Compound 755, 2-{5-[(adamantan-1-ylmethyl)carbamoyl]imidazo[1,2-a]pyridin-2-yl}-3-phenylpropanoic acid]	< 2000 nM
CC(C)NCCSCc1cn2c(C(=O)NCC34CC5CC(CC(C5)C3)C4)cccc2n1 [Compound 757, N-(adamantan-1-ylmethyl)-2-({[2-(isopropylamino)ethyl]thio}methyl) imidazo[1,2-a] pyridine-5-carboxamide]	< 2000 nM
CC(C)CC(CNC(=O)c1cccc2nc(CN3CC[C@@H](N)C3)cn12)c1ccc(Cl)cc1 (stereo partly drawn) [Compound 762, 2-[(3-aminopyrrolidin-1-yl)methyl]-N-[2-(4-chlorophenyl)-4-methylpentyl] imidazo [1,2-a]pyridine-5-carboxamide]	< 2000 nM
CN(C(=O)Cc1cn2c(C(=O)NCC34CC5CC(CC(C5)C3)C4)cccc2n1)C1CCOCC1 [Compound 767, N-(adamantan-1-ylmethyl)-2-{2-[methyl(tetrahydro-2H-pyran-4-yl)amino]-2-oxoethyl} imidazo[1,2-a] pyridine-5-carboxamide]	< 2000 nM

Continued, values first:

IC50	Structure (SMILES)
< 2000 nM	CCOC(=O)C(Cc1ccncc1)c1cn2c(C(=O)NCC34CC5CC(CC(C5)C3)C4)cccc2n1 (stereo not drawn) [Compound 735, ethyl 2-{5-[(adamantan-1-ylmethyl)carbamoyl]imidazo[1,2-a]pyridin-2-yl}-3-pyridin-4-ylpropanoate]
< 2000 nM	O=C(O)c1nnnn1Cc1cn2c(C(=O)NCC34CC5CC(CC(C5)C3)C4)cccc2n1 [Compound 737, 1-({5-[(adamantan-1-ylmethyl)carbamoyl]imidazo[1,2-a]pyridin-2-yl}methyl)-1H-tetrazole-5-carboxylic acid]
< 2000 nM	CC(C)CC(CNC(=O)c1cccc2nc(CN3CC[C@@H](N)C3)cn12)C1CCCCC1 (stereo partly drawn) [Compound 739, 2-[(3-aminopyrrolidin-1-yl)methyl]-N-(2-cyclohaxyl-4-methylpentyl)imidazo [1,2-a]pyridine-5-carboxamide]
< 2000 nM	CC(C)CC(CNC(=O)c1cccc2nc(CSCCN)cn12)c1cccnc1 (stereo not drawn) [Compound 744, 2-{[(2-aminoethyl)thio]methyl}-N-(4-methyl-2-pyridin-3-ylpentyl)imidazo [1,2-a]pyridine-5-carboxamide]
< 2000 nM	CCOC(=O)CCc1cn2c(C(=O)NCC34CC5CC(CC(C5)C3)C4)cccc2n1 [Compound 756, ethyl 3-{5-[(adamantan-1-ylmethyl)carbamoyl]imidazo[1,2-a]pyridin-2-yl}propanoate]
< 2000 nM	COC(=O)C(Cc1cn2c(C(=O)NCC34CC5CC(CC(C5)C3)C4)cccc2n1)c1ccccn1 (stereo not drawn) [Compound 758, methyl 3-{5-[(adamantan-1-ylmethyl)carbamoyl]imidazo[1,2-a]pyridin-2-yl}-2-pyridin-2-ylpropanoate]
< 2000 nM	CCOC(=O)C(Cc1cn2c(C(=O)NCC34CC5CC(CC(C5)C3)C4)cccc2n1)c1cccnc1 (stereo not drawn) [Compound 759, ethyl 3-{5-[(adamantan-1-ylmethyl)carbamoyl]imidazo[1,2-a]pyridin-2-yl}-2-pyridin-3-ylpropanoate]
< 2000 nM	Cc1ccc(C(CNC(=O)c2cccc3nc(CN4CC[C@@H](N)C4)cn23)CC(C)C)cc1 (stereo partly drawn) [Compound 760, 2-[(3-aminopyrrolidin-1-yl)methyl]-N-[4-methyl-2-(4-methylphenyl)pentyl] imidazo[1,2-a] pyridine-5-carboxamide]
< 2000 nM	CC(C#N)c1cn2c(C(=O)NCC34CC5CC(CC(C5)C3)C4)cccc2n1 (stereo not drawn) [Compound 761, N-(adamantan-1-ylmethyl)-2-(1-cyanoethyl)imidazo [1,2-a]pyridine-5-carboxamide]
< 2000 nM	CC(C)CC(CNC(=O)c1cccc2nc(CN3CC[C@@H](NC(=O)OC(C)(C)C)C3)cn12)c1ccc(C(F)(F)F)cc1 (stereo partly drawn) [Compound 764, tert-butyl (1-{[5-({4-methyl-2-[4-(trifluoromethyl)phenyl]pentyl}carbamoyl)imidazo [1,2-a]pyridin-2-yl]methyl}pyrrolidin-3-yl)carbamate]
< 2000 nM	Cc1ccc(C(CNC(=O)c2cccc3nc(CN4CC[C@@H](NC(=O)OC(C)(C)C)C4)cn23)CC(C)C)cc1 (stereo partly drawn) [Compound 765, tert-butyl {1-[(5-{[4-methyl-2-(4-methylphenyl)pentyl]carbamoyl}imidazo [1,2-a]pyridin-2-yl)methyl]pyrrolidin-3-yl}carbamate]
< 2000 nM	CC(C)CC(CNC(=O)c1cccc2nc(CN3CC[C@@H](NC(=O)OC(C)(C)C)C3)cn12)c1ccc(Cl)cc1 (stereo partly drawn) [Compound 766, tert-butyl{1-[(5-{[2-(4-chlorophenyl)-4-methylpentyl]carbamoyl}imidazo[1,2-a]pyridin-2-yl)methyl]pyrrolidin-3-yl}carbamate]
< 2000 nM	N[C@@H]1CCN(Cc2cn3c(C(=O)NCC4(c5cccnc5)CCCCC4)cccc3n2)C1 [Compound 769, 2-[(3-aminopyrrolidin-1-yl)methyl]-N-[(1-pyridin-3-ylcyclohexyl)methyl] imidazo[1,2-a] pyridine-5-carboxamide]
< 2000 nM	CC(c1cn2c(C(=O)NCC34CC5CC(CC(C5)C3)C4)cccc2n1)c1nnn[nH]1 (stereo not drawn) [Compound 770, N-(adamantan-1-ylmethyl)-2-[1-(1H-tetrazol-5-yl)ethyl]imidazo [1,2-a]pyridine-5-carboxamide]
